Reference: US6814960B1, “Hydroxystilbene compounds used as microbicidal active substances” (Ciba Specialty Chemicals Corporation, priority 1998, dated 2004)
Read-outs that look alike come from different tables or passages of the source. One block for each compound: values may come before it.

Key:
Type in all cases: cell-based
[1] = tested on: Corynebacterium xerosis ATCC 373; assay: MIC in the agar diffusion test; conditions: Mueller-Hinton agar, 24 hours at 37° C.; (103) solution in EtOH
From the text: (§1) Determination of the Minimum Inhibiting Concentration (MIC) in the Agar Diffusion Test

[2] = tested on: Escherichia coli NCTC 8196; assay: MIC in the agar diffusion test; conditions: for MIC: Escherichia coli, read-out: MIC E. coli
From the text: as §1

[3] = tested on: Candida albicans ATCC 10231; assay: MIC in the agar diffusion test; conditions: for MIC: Candida albicans, read-out: MIC C. albicans
From the text: as §1

[4] = tested on: Staphylococcus aureus ATCC 9144; assay: MIC in the agar diffusion test; conditions: for MIC: Staphylococcus aureus, read-out: MIC S. aureus
From the text: as §1

[5] = tested on: Pseudomonas aeruginosa CIP A-22; assay: MIC in the agar diffusion test; conditions: Mueller-Hinton agar, 24 hours at 37° C., solution in EtOH
From the text: as §1

[6] = tested on: Aspergillus niger ATCC 6275; assay: MIC in the agar diffusion test; conditions: for MIC: Aspergillus niger, ATCC6275, 72 h, read-out: MIC A. niger
From the text: as §1

[7] = tested on: Aspergillus niger ATCC 6275; assay: MIC value in microtitre plates (optical density); conditions: microtitre plate, Sabouraud 2% glucose bouillon, 5 days at 28° C., optical density 620 nm, ≦20% growth; some data indicative values
Method: (§2) Determination of the Minimum Inhibiting Concentration (MIC Value) in Microtitre Plates
(§3) Casein/soybean flour peptone bouillon for the preparation of the precultures of the test bacteria and yeast.
(§4) Mycological slant agar for the preculture of moulds.
(§5) Examples of Test Organisms
(§6) The test substances are predissolved in dimethyl sulfoxide (DMSO) and tested in a serial dilution of 1:2.
(§7) Bacteria and yeast are cultured overnight in CASO bouillon, the mould on mycological slant agar and rinsed off with 10 ml of 0.85% sodium chloride solution (+0.1% TritonX-100).
(§8) All test organisms are adjusted to an organism count of 1.5×10^6 CFU/ml with 0.85% sodium chloride solution.
(§9) The test substances are prepipetted into microtitre plates in an amount of 8 μl per well.
(§10) Previously diluted organism substances are diluted 1:100 in CASO bouillon (bacteria and yeast) and Sabouraud 2% glucose bouillon (mould) and added to the test substances in an amount of 192 μl per well.
(§11) The test batches are incubated for 48 hours at 37° C. (bacteria and yeast) or for 5 days at 28° C. (mould).
(§12) After incubation, the growth is determined by reference to the turbidity of the test batches (optical density) at 620 nm in a microplate reader.
(§13) The minimum inhibiting concentration (MIC value) is the concentration of substance at which (compared with the growth control) an appreciable inhibition of the growth (≦20% growth) of the test organisms is ascertained.
(§14) One microtiter plate is used for each test organism and substance concentration. All substances tested in duplicate.

[8] = tested on: Escherichia coli NCTC 8196; assay: MIC value in microtitre plates (optical density); conditions: microtitre plate, CASO bouillon, 48 hours at 37° C., optical density 620 nm, ≦20% growth; some data indicative values
Method: as §2, §3, §4, §5, §6, §7, §8, §9, §10, §11, §12, §13, §14

[9] = tested on: Candida albicans ATCC 10231; assay: MIC value in microtitre plates (optical density); conditions: microtitre plate, CASO bouillon, 48 hours at 37° C., optical density 620 nm, ≦20% growth; some data indicative values
Method: as §2, §3, §4, §5, §6, §7, §8, §9, §10, §11, §12, §13, §14

[10] = tested on: Staphylococcus hominis DSM 20328; assay: MIC value in microtitre plates (optical density); conditions: microtitre plate, CASO bouillon, 48 hours at 37° C., optical density 620 nm, ≦20% growth; some data indicative values
Method: as §2, §3, §4, §5, §6, §7, §8, §9, §10, §11, §12, §13, §14

[11] = tested on: Pseudomonas aeruginosa CIP A-22; assay: MIC value in microtitre plates (optical density); conditions: microtitre plate, CASO bouillon, 48 hours at 37° C., optical density 620 nm, ≦20% growth; some data indicative values
Method: as §2, §3, §4, §5, §6, §7, §8, §9, §10, §11, §12, §13, §14

[12] = Mueller-Hinton agar, 24 hours at 37° C., (101), (103) solution in EtOH, others in DMSO
[13] = Sabouraud 4% glucose agar, 3 days at 28° C., (101) solution in EtOH, others in DMSO

MIC C. xerosis [1]: 100 ppm
MIC E. coli ([2]; Mueller-Hinton agar, 24 hours at 37° C., (101), (103) solution in EtOH, (102) in DMSO): 600 ppm
MIC C. albicans [3, 12]: 600 ppm
MIC S. aureus [4, 12]: 600 ppm
MIC P. aeruginosa [5]: 600 ppm
Compound: Oc1ccc(/C=C/c2cc(O)cc(O)c2)cc1 [Compound of formula (103)]

Compound: Oc1ccc(/C=C/c2ccc(Cl)cc2)cc1 [Compound of formula (106)]
MIC A. niger [6, 13]: 600 ppm
MIC S. aureus [4, 12]: 10 ppm

MIC [6, 13]: 100 µg/mL
MIC ([2]; NCTC8196, Mueller-Hinton agar, 24 hours at 37° C., (101), (103) solution in EtOH, (102) in DMSO): 100 µg/mL
MIC ([3]; ATCC10231, Mueller-Hinton agar, 24 hours at 37° C., (101), (103) solution in EtOH, others in DMSO): 100 µg/mL
MIC ([4]; ATCC9144, Mueller-Hinton agar, 24 hours at 37° C., (101), (103) solution in EtOH, others in DMSO): 100 µg/mL
MIC ([5]; Pseudomonas aeruginosa, CIPA22, read-out: MIC P. aeruginosa): 100 µg/mL
Compound: Oc1cc(O)cc(C=Cc2ccccc2)c1 [Compound of formula (101), 3,5-dihydroxystilbene]

MIC C. albicans [3, 12]: 600 ppm
MIC S. aureus [4, 12]: 300 ppm
Compound: CN(C)c1ccc(/C=C/c2ccccc2)cc1 [Compound of formula (104)]

Compound: Oc1ccccc1/C=C/c1ccc(-c2ccccc2)cc1 [Comp. of formula 150]
MIC values A. niger [7]: >100 ppm
MIC values E. coli [8]: >100 ppm
MIC values C. albicans [9]: >100 ppm
MIC values S. heminis [10]: >100 ppm
MIC values P. aeruginosa [11]: >100 ppm

Compound: Oc1cccc(/C=C/c2ccccc2)c1 [Compound of formula (102), 3-hydroxystilbene]
MIC [6]: 10 µg/mL
MIC ([2]; NCTC8196, 24 h): 100 µg/mL
MIC ([3]; ATCC10231, 24 h): 100 µg/mL
MIC ([4]; ATCC9144, 24 h): 100 µg/mL

Compound: Cc1ccccc1/C=C/c1ccc(O)cc1 [Comp. of formula 168]
MIC values A. niger [7]: 30 ppm
MIC values E. coli [8]: 30 ppm
MIC values C. albicans [9]: 15 ppm
MIC values S. heminis [10]: 7.5 ppm
MIC values P. aeruginosa [11]: 100 ppm

Compound: Cc1ccc(/C=C/c2cccc(C)c2O)cc1 [Comp. of formula 189]
MIC values A. niger [7]: >100 ppm
MIC values E. coli [8]: 100 ppm
MIC values C. albicans [9]: >100 ppm
MIC values S. heminis [10]: >100 ppm
MIC values P. aeruginosa [11]: >100 ppm

Compound: COc1ccc(/C=C/c2cc(O)c(OC)c(OC)c2)cc1 [Comp. of formula 138]
MIC values A. niger [7]: >100 ppm
MIC values E. coli [8]: >100 ppm
MIC values C. albicans [9]: >100 ppm
MIC values S. heminis [10]: >100 ppm
MIC values P. aeruginosa [11]: >100 ppm

Compound: Oc1ccc(/C=C/c2cccc3ccccc23)cc1 [Comp. of formula 156]
MIC values A. niger [7]: 30 ppm
MIC values E. coli [8]: 60 ppm
MIC values C. albicans [9]: 15 ppm
MIC values S. heminis [10]: 7.5 ppm
MIC values P. aeruginosa [11]: >100 ppm

Compound: CCOc1cc(/C=C/c2ccc(-c3ccccc3)cc2)ccc1O [Comp. of formula 147]
MIC values A. niger [7]: >100 ppm
MIC values E. coli [8]: >100 ppm
MIC values C. albicans [9]: >100 ppm
MIC values S. heminis [10]: >100 ppm
MIC values P. aeruginosa [11]: >100 ppm

Compound: Cc1cccc(/C=C/c2ccc(Cl)cc2)c1O [Comp. of formula 128]
MIC values A. niger [7]: 100 ppm
MIC values E. coli [8]: >100 ppm
MIC values C. albicans [9]: >100 ppm
MIC values S. heminis [10]: >100 ppm
MIC values P. aeruginosa [11]: >100 ppm

Compound: COc1ccc(/C=C/c2ccc(-c3ccccc3)cc2)cc1O [Comp. of formula 146]
MIC values A. niger [7]: >100 ppm
MIC values E. coli [8]: >100 ppm
MIC values C. albicans [9]: >100 ppm
MIC values S. heminis [10]: >100 ppm
MIC values P. aeruginosa [11]: >100 ppm

Compound: Oc1ccccc1/C=C/c1ccc(Cl)cc1 [Comp. of formula 125]
MIC values A. niger [7]: 60 ppm
MIC values E. coli [8]: 15 ppm
MIC values C. albicans [9]: 60 ppm
MIC values S. heminis [10]: 60 ppm
MIC values P. aeruginosa [11]: 100 ppm

Compound: Oc1cccc(/C=C/c2ccc(Cl)cc2)c1 [Comp. of formula 120]
MIC values A. niger [7]: 30 ppm
MIC values E. coli [8]: 7.5 ppm
MIC values C. albicans [9]: 7.5 ppm
MIC values S. heminis [10]: 7.5 ppm
MIC values P. aeruginosa [11]: >100 ppm

Compound: COc1cc(/C=C/c2ccc(-c3ccccc3)cc2)ccc1O [Comp. of formula 148]
MIC values A. niger [7]: >100 ppm
MIC values E. coli [8]: >100 ppm
MIC values C. albicans [9]: >100 ppm
MIC values S. heminis [10]: >100 ppm
MIC values P. aeruginosa [11]: >100 ppm

Compound: Cc1ccc(/C=C/c2ccccc2O)cc1 [Comp. of formula 186]
MIC values A. niger [7]: 60 ppm
MIC values E. coli [8]: 30 ppm
MIC values C. albicans [9]: 30 ppm
MIC values S. heminis [10]: 30 ppm
MIC values P. aeruginosa [11]: 100 ppm

Compound: COc1cc(/C=C/c2ccccc2C)cc(O)c1OC [Comp. of formula 175]
MIC values A. niger [7]: 100 ppm
MIC values E. coli [8]: 60 ppm
MIC values C. albicans [9]: 60 ppm
MIC values S. heminis [10]: 60 ppm
MIC values P. aeruginosa [11]: 100 ppm

Compound: Cc1ccccc1/C=C/c1ccccc1O [Comp. of formula 174]
MIC values A. niger [7]: 60 ppm
MIC values E. coli [8]: 100 ppm
MIC values C. albicans [9]: 60 ppm
MIC values S. heminis [10]: 60 ppm
MIC values P. aeruginosa [11]: >100 ppm

Compound: COc1ccc(/C=C/c2ccc(OC)c(O)c2)cc1 [Comp. of formula 133]
MIC values A. niger [7]: >100 ppm
MIC values E. coli [8]: >100 ppm
MIC values C. albicans [9]: >100 ppm
MIC values S. heminis [10]: >100 ppm
MIC values P. aeruginosa [11]: >100 ppm

Compound: Oc1ccccc1/C=C/c1ccccc1 [Comp. of formula 113]
MIC values A. niger [7]: 60 ppm
MIC values E. coli [8]: 100 ppm
MIC values C. albicans [9]: 60 ppm
MIC values S. heminis [10]: 100 ppm
MIC values P. aeruginosa [11]: >100 ppm

Compound: Oc1ccc(/C=C/c2ccc(Cl)cc2)cc1 [Comp. of formula 119]
MIC values A. niger [7]: 100 ppm
MIC values E. coli [8]: >100 ppm
MIC values C. albicans [9]: 15 ppm
MIC values S. heminis [10]: 7.5 ppm
MIC values P. aeruginosa [11]: >100 ppm

Compound: COc1ccc(/C=C/c2ccc(O)c(OC)c2)cc1 [Comp. of formula 135]
MIC values A. niger [7]: >100 ppm
MIC values E. coli [8]: >100 ppm
MIC values C. albicans [9]: >100 ppm
MIC values S. heminis [10]: >100 ppm
MIC values P. aeruginosa [11]: >100 ppm

Compound: Cc1cccc(/C=C/c2ccccc2)c1O [Comp. of formula 116]
MIC values A. niger [7]: 60 ppm
MIC values E. coli [8]: 60 ppm
MIC values C. albicans [9]: 60 ppm
MIC values S. heminis [10]: 60 ppm
MIC values P. aeruginosa [11]: 100 ppm

Compound: Oc1ccc(/C=C/c2ccccc2)cc1 [Comp. of formula 107]
MIC values A. niger [7]: 100 ppm
MIC values E. coli [8]: >100 ppm
MIC values C. albicans [9]: >100 ppm
MIC values S. heminis [10]: 100 ppm
MIC values P. aeruginosa [11]: >100 ppm

Compound: COc1cc(/C=C/c2ccc(Cl)cc2)cc(O)c1OC [Comp. of formula 126]
MIC values A. niger [7]: 100 ppm
MIC values E. coli [8]: >100 ppm
MIC values C. albicans [9]: 100 ppm
MIC values S. heminis [10]: >100 ppm
MIC values P. aeruginosa [11]: >100 ppm

Compound: COc1ccc(/C=C/c2cccc(O)c2)cc1 [Comp. of formula 132]
MIC values A. niger [7]: >100 ppm
MIC values E. coli [8]: >100 ppm
MIC values C. albicans [9]: >100 ppm
MIC values S. heminis [10]: >100 ppm
MIC values P. aeruginosa [11]: >100 ppm
